Test results published in patent publication US20250340510A1, “Substituted Phenylbenzenesulfonamide Derivatives and Uses Thereof” (Nine Square Therapeutics Corporation, priority 2022, published 2025).

How the values were obtained:
TFEB = TFEB translocation assay in HeLa cells (nuclear to cytoplasmic TFEB ratio, high-content imaging); format: cell-based; conditions: 90 mins incubation at 37° C., ratio of nuclear to cytoplasmic TFEB
Protocol: Example B2. TFEB Translocation Assay
Rabbit TFEB antibody, Cell Signaling Technology #4240S
PFA 16% MeOH-free, Election Microscopy Sciences #50-980-487
HCS CellMask Deep Red, ThermoFisher Scientific #H32721
Plates: Perkin Elmer Phenoplate #605730 black optically clear, tissue culture treated 384-well plate
Example B2.2 Method, Day 1: Cells Seeded in 384WP
Cells were seeded in the afternoon. The outer one row of the plate was not used to avoid outer well edge effects.
HeLa cells were detached using trypsin, and the cells were counted using a cell counter.
4000 HeLa cells were seeded per well in […] growth media (DMEM with 10% FBS, 1 mM sodium pyruvate and Pen-Strep).
Example B2.3 Method, Day 2: Assay with TRPML1 Compounds+Staining
Compounds were added to cells using a Tecan D300e dispenser.
Cells were incubated for 90 mins at 37° C. with the compounds (compound range: 80 nM-[…] (2× step dilution—8 dilution steps, 3 replicates per condition)
The cells were fixed by adding 16.5 μL of 16% PFA (4% final) and incubating for 15 min at room temperature.
The cells were washed with 3× in PBS-TX (PBS+0.1% Triton X-100)−1×100 μL followed by 2×50 μL.
The cells were blocked and permeabilized in 30 μL of blocking buffer (PBS-TX+5% goat serum) for 1 h.
The cells were incubated with TFEB antibody (1:200, CST 4240S) in 30 μL blocking buffer overnight at 4° C. The plates were kept damp to avoid evaporation.
Example B2.4 Method, Day 3: Staining+Imaging
The cells were washed 3× in PBS-TX—3×100 μL with a Biotek EL406 washer.
The cells were incubated with Goat anti-Rb Alexa-Fluor 488 (1:2000), cell mask (1:10,000) and Hoechst (1:10,000) in 30 μL blocking buffer for 1 h at room temperature. The solution was dispensed using a 5 μL peristaltic cassette (EL406).
The cells were washed 3× in PBS-TX—3×100 μL with a EL406 washer, then […] PBS was dispensed using a 5 μL peristaltic cassette (EL406).
The cells were imaged on an Operetta CLS High-content imaging system using a 20× water immersion objective (NA 1.0) the same day.
Image analysis was performed using Harmony V4.9 (Perkin Elmer). Briefly, nuclei were segmented from background-corrected images using Hoechst intensity, and cell body segmented using HCS CellMask DeepRed. A sliding parabola filter was applied to the AlexaFluor 488 channel (TFEB), before sum pixel intensity in the nuclear and cytoplasmic regions was calculated. A ratio of nuclear to cytoplasmic TFEB was used to define TFEB translocation from the cytosolic to nuclear compartment. The EC50 values derived by fitting the data to a sigmoidal dose response curve using Prism 9 (Graphpad).

TRPML1 = TRPML1 (Homo sapiens, UniProt Q9GZU1); experiment: Calcium flux in HEK293 overexpressing TRPML1 plasma membrane variant (FLIPR, Calcium 6 dye); format: cell-based; conditions: HEK293/TRPML1-PM clone A5 cells; 4-parameter logistic fit; read-out: TRPML1 calcium flux (FLIPR) dose response: EC50
TRPML1, sequence (Q9GZU1 17-572 limits assumed): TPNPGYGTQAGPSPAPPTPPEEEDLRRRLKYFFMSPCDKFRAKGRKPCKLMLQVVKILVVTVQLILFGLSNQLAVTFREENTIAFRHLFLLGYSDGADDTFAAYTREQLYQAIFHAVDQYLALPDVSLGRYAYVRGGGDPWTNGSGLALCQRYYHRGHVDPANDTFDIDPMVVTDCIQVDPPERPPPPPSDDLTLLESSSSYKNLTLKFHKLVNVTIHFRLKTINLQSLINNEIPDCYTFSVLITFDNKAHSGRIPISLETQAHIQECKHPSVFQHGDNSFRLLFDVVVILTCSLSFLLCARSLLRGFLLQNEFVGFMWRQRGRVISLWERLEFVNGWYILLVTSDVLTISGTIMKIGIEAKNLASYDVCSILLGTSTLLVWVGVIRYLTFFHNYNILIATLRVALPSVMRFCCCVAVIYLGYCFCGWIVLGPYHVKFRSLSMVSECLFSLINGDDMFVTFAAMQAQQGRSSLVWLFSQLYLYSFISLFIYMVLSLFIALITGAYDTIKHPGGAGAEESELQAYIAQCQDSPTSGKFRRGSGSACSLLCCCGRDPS
Excerpt: Example B1. Calcium Flux in HEK293 Overexpressing TRPML1 Plasma Membrane Variant—Calcium 6 Dye
Cells: HEK293/TRPML1-PM clone A5, clonal cell line containing mutant TRPML1 (both N- and C-terminal dileucine targeting motifs deleted) that localizes to the plasma membrane
Plates: Perkin Elmer Viewplate cat. #6007460, black optically clear, tissue culture treated 384-well plate
Calcium dye: Molecular Devices FLIPR Calcium 6 Assay Kit, cat. #R8190 or Fluo-4 Direct from Thermo Fisher, cat. #F10471
Tips: Molecular Devices 384-well FLIPR Tetra black tips, cat. #9000-0764 Example B1.2 Method
HEK293/TRPML1-PM clone A5 cells were trypsinized from flasks, counted, then diluted in media to 15,000 cells per 25 μL, and seeded into a black, 384-well viewplate, and cultured overnight.
One vial of calcium 6 dye was diluted with 10 mL of assay buffer (HBSS+20 mM HEPES pH 7.4) and 25 μL of the dilution was added per well to the cells.
After incubating for 2 hours at 37° C., the plate was moved to the FLIPR in the read position.
The compounds were diluted in EMEM with 0.125% FBS to 5× concentration and loaded in a 384-well plate according to the desired plate map for the assay, including DMSO alone and carbachol controls, then the plate was moved to the FLIPR in the source 2 position.
A box of tips was placed in the source 1 position within the FLIPR to complete the assay set up.
Once the run was started, an initial baseline fluorescent measurement was performed for 10 seconds (470-495 nm excitation and 515-575 nm emission) prior to adding the compounds.
12.5 μL of 5× test compound, DMSO alone, or carbachol were added via the FLIPR and real-time fluorescence measurements were performed for an additional 170 seconds with 1 read per second.
The data was normalized to baseline by calculating maximum fluorescence minus minimum fluorescence and plotted as response (fold) over the baseline versus log ([…] concentration). The EC50 was determined using a 4-parameter logistic curve fit in Graphpad Prism 9.

| Structure (SMILES) | EC50 (TFEB; Homo sapiens, HeLa, 1.5 h) [nM] | EC50 (TRPML1) [nM] | EC50 (TFEB) [nM] | EC50 (TFEB; Homo sapiens, 1.5 h) [nM] |
| --- | --- | --- | --- | --- |
| Cc1cccc(NS(=O)(=O)c2ccc(S(=O)(=O)N(C)C)cc2)c1N(C)C1CCCCC1 [Compound 98, N1-(2-(cyclohexyl(methyl)amino)-3-methylphenyl)-N4,N4-dimethylbenzene-1,4-disulfonamide] | 117 | 46.6 |  |  |
| CN(CC1(F)CCCCC1)c1ccccc1NS(=O)(=O)c1ccc(S(=O)(=O)N(C)C)cc1 [Compound 96, N1-(2-(((1-fluorocyclohexyl)methyl)(methyl)amino)phenyl)-N4,N4-dimethylbenzene-1,4-disulfonamide] |  | 247 |  | 140 |
| Cc1nc(CN(C)c2ccccc2NS(=O)(=O)c2ccc(S(=O)(=O)N(C)C)cc2)ccc1F [Compound 85, N1-(2-(((5-fluoro-6-methylpyridin-2-yl)methyl)(methyl)amino)phenyl)-N4,N4-dimethylbenzene-1,4-disulfonamide] | 1000 | 447 |  |  |
| CN(c1c(C#N)cccc1NS(=O)(=O)c1ccc(S(=O)(=O)N(C)C)cc1)C1CCCCC1 [Compound 91, N1-(3-cyano-2-(cyclohexyl(methyl)amino)phenyl)-N4,N4-dimethylbenzene-1,4-disulfonamide] | 199 | 77.2 |  |  |
| CN(CC1CC1)c1ccccc1NS(=O)(=O)c1ccc(S(=O)(=O)N(C)C)cc1 [Compound 14, N1-(2-((cyclopropylmethyl) (methyl)amino)phenyl)-N4,N4-dimethylbenzene-1,4-disulfonamide] | 2030 | 1560 |  |  |
| Cc1cccc(NS(=O)(=O)c2ccc(S(=O)(=O)N(C)C)cc2)c1N(C)Cc1cscn1 [Compound 71, N1,N1-dimethyl-N4-(3-methyl-2-(methyl(thiazol-4-ylmethyl)amino)phenyl)benzene-1,4-disulfonamide] | 4040 | 818 |  |  |
| CN(c1ccc(C#N)cc1NS(=O)(=O)c1ccc(S(=O)(=O)N(C)C)cc1)C1CCCCC1 [Compound 89, N1-(5-cyano-2-(cyclohexyl(methyl)amino)phenyl)-N4,N4-dimethylbenzene-1,4-disulfonamide] |  | 681 |  | 2400 |
| CN(CC1CCCCO1)c1ccccc1NS(=O)(=O)c1ccc(S(=O)(=O)N(C)C)cc1 (stereo not shown) [Compound 108, N1,N1-dimethyl-N4-(2-(methyl((tetrahydro-2H-pyran-2-yl)methyl)amino)phenyl)benzene-1,4-disulfonamide] | 431 | 790 |  |  |
| CN(c1ccccc1NS(=O)(=O)c1ccc(S(=O)(=O)N(C)C)cc1)C1CCCC(F)(F)C1 (stereo not shown) [Compound 104, N1-(2-((3,3-difluorocyclohexyl) (methyl)amino)phenyl)-N4,N4-dimethylbenzene-1,4-disulfonamide] | 573 | 715 |  |  |
| CN(Cc1ccsc1)c1ccccc1NS(=O)(=O)c1ccc(S(=O)(=O)N(C)C)cc1 [Compound 13, N1,N1-dimethyl-N4-(2-(methyl(thiophen-3-ylmethyl)amino)phenyl)benzene-1,4-disulfonamide] | 1350 | 670 |  |  |
| CN(c1ccccc1NS(=O)(=O)c1ccc(S(=O)(=O)N(C)C)cc1)C1CCOC2(CCC2)C1 (stereo not shown) [Compound 87, N1,N1-dimethyl-N4-(2-(methyl(5-oxaspiro[3.5]nonan-8-yl)amino)phenyl)benzene-1,4-disulfonamide] | 674 | 823 |  |  |
| CN(c1ccccc1NS(=O)(=O)c1ccc(S(=O)(=O)N(C)C)cc1)C1(C)CCCCC1 [Compound 17, N1,N1-dimethyl-N4-(2-(methyl(1-methylcyclohexyl)amino)phenyl)benzene-1,4-disulfonamide] | 450 | 190 |  |  |
| CN(c1cc(C(F)(F)F)ccc1NS(=O)(=O)c1ccc(S(=O)(=O)N(C)C)cc1)C1CCCCC1 [Compound 116, N1-(2-(cyclohexyl(methyl)amino)-4-(trifluoromethyl)phenyl)-N4,N4-dimethylbenzene-1,4-disulfonamide] |  | 1030 |  |  |
| CN(CC1CCOC(C)(C)C1)c1ccccc1NS(=O)(=O)c1ccc(S(=O)(=O)N(C)C)cc1 (stereo not shown) [Compound 100, N1-(2-(((2,2-dimethyltetrahydro-2H-pyran-4-yl)methyl)(methyl)amino)phenyl)-N4,N4-dimethylbenzene-1,4-disulfonamide] |  | 1160 |  |  |

Now from value to compound, other results behind:

| EC50 (TFEB; Homo sapiens, HeLa, 1.5 h) [nM] | EC50 (TRPML1) [nM] | EC50 (TFEB) [nM] | Structure (SMILES) | EC50 (TFEB; Homo sapiens, 1.5 h) [nM] |
| --- | --- | --- | --- | --- |
| > 9900 | 1140 |  | CN(c1ccccc1NS(=O)(=O)c1ccc(S(=O)(=O)N(C)C)cc1)C1CCOC1 (stereo not shown) [Compound 18, N1,N1-dimethyl-N4-(2-(methyl(tetrahydrofuran-3-yl)amino)phenyl)benzene-1,4-disulfonamide] |  |
| 870 | 250 |  | CN(Cc1cncs1)c1ccccc1NS(=O)(=O)c1ccc(S(=O)(=O)N(C)C)cc1 [Compound 55, N1,N1-dimethyl-N4-(2-(methyl(thiazol-5-ylmethyl)amino)phenyl)benzene-1,4-disulfonamide] |  |
| 1270 | 274 | 915 | CN(CC1(F)CC1)c1ccccc1NS(=O)(=O)c1ccc(S(=O)(=O)N(C)C)cc1 [Compound 95, N1-(2-(((1-fluorocyclopropyl)methyl)(methyl)amino)phenyl)-N4,N4-dimethylbenzene-1,4-disulfonamide] |  |
| 830 | 300 |  | CN(Cc1ccccc1)c1ccccc1NS(=O)(=O)c1ccc(S(=O)(=O)N(C)C)cc1 [Compound 26, N1-(2-(benzyl(methyl)amino)phenyl)-N4,N4-dimethylbenzene-1,4-disulfonamide] |  |
| 649 | 857 |  | CN(CC1(F)CCCC1)c1ccccc1NS(=O)(=O)c1ccc(S(=O)(=O)N(C)C)cc1 [Compound 93, N1-(2-(((1-fluorocyclopentyl)methyl)(methyl)amino)phenyl)-N4,N4-dimethylbenzene-1,4-disulfonamide] |  |
| 573 | 433 |  | CN(c1ccccc1NS(=O)(=O)c1ccc(S(=O)(=O)N(C)C)cc1)C1CCC(F)(F)C1 (stereo not shown) [Compound 99, N1-(2-((3,3-difluorocyclopentyl) (methyl)amino)phenyl)-N4,N4-dimethylbenzene-1,4-disulfonamide] |  |
| 339 | 421 |  | CN(CC1CCC1)c1c(Cl)cccc1NS(=O)(=O)c1ccc(S(=O)(=O)N(C)C)cc1 [Compound 69, N1-(3-chloro-2-((cyclobutylmethyl)(methyl)amino)phenyl)-N4,N4-dimethylbenzene-1,4-disulfonamide] |  |
| 83.7 | 353 |  | Cc1ccc(N(C)C2CCCCC2)c(NS(=O)(=O)c2ccc(S(=O)(=O)N(C)C)cc2)c1 [Compound 117, N1-(2-(cyclohexyl(methyl)amino)-5-methylphenyl)-N4,N4-dimethylbenzene-1,4-disulfonamide] |  |
